Laboratory results taken from patent US11685746B2, “Heteroaryl compounds for treating Huntington's disease” (PTC THERAPEUTICS, INC., priority 2018, dated 2023).

These molecules were tested on Endogenous Huntingtin Protein (assay: Endogenous Huntingtin Protein Assay (MSD plates, MW1 or MAB2166 capture antibody)). Settings: Table 1.
Type: cell-based
Protocol: Endogenous Huntingtin Protein Assay
Meso Scale Discovery (MSD) 96-well or 384-well plates were coated overnight at 4° C. with MW1 (expanded polyglutamine) or MAB2166 monoclonal antibody (for capture) at a concentration of 1 μg/mL in PBS (30 μL per well). Plates were then washed three times with 300 μL wash buffer (0.05% Tween-20 in PBS) and blocked (100 μL blocking buffer; 5% BSA in PBS) for 4-5 hours at room temperature with rotational shaking and then washed three times with wash buffer.
Samples (25 μL) were transferred to the antibody-coated MSD plate and incubated overnight at 4° C. After removal of the lysates, the plate was washed three times with wash buffer, and 25 μL of #5656S (Cell signaling; rabbit monoclonal) secondary antibody (diluted to 0.25 μg/mL in 0.05% Tween-20 in blocking buffer) was added to each well and incubated with shaking for 1 Hour at room temperature. Following incubation with the secondary antibody, the wells were rinsed with wash buffer after which 25 μL of goat anti-rabbit SULFO TAG secondary detection antibody (required aspect of the MSD system) (diluted to 0.25 μg/mL in 0.05% Tween-20 in blocking buffer) was added to each well and incubated with shaking for 1 hour at room temperature. After rinsing three times with wash buffer, 150 μL of read buffer T with surfactant (MSD) were added to each empty well, and the plate was imaged on a SI 6000 imager (MSD) according to manufacturers' instructions provided for 96- or 384-well plates.
CCN(c1nc2sc(-c3ncc(-c4cn[nH]c4)cc3O)nc2s1)C1CCNCC1 [Compound 61, 2-{5-[ethyl(piperidin-4-yl)amino][1,3]thiazolo[5,4-d][1,3]thiazol-2-yl}-5-(1H-pyrazol-4-yl)pyridin-3-ol] showed an IC50 of at most 100 nM.
Molecule CN(c1nc2sc(-c3ncc(Br)n4ccnc34)nc2s1)C1CCNCC1 [Compound 117, 5-(5-bromoimidazo[1,2-a]pyrazin-8-yl)-N-methyl-N-(piperidin-4-yl)[1,3]thiazolo[5,4-d][1,3]thiazol-2-amine] has an IC50 of 1000 to 3000 nM.
CN(c1nc2sc(-n3cnc(-c4cn[nH]c4)cc3=O)nc2s1)[C@H]1C[C@]2(C)CC[C@](C)(C1)N2 [Compound 144, 3-(5-{[(1R,3s,5S)-1,5-dimethyl-8-azabicyclo[3.2.1]octan-3-yl](methyl)amino}[1,3]thiazolo[5,4-d][1,3]thiazol-2-yl)-6-(1H-pyrazol-4-yl)pyrimidin-4(3H)-one] was tested, and the IC50 was at most 100 nM.
For CN(c1nc2sc(-c3cnc(-n4ccnc4)cn3)nc2s1)C1CC(C)(C)NC(C)(C)C1 [Compound 102, 5-[5-(1H-imidazol-1-yl)pyrazin-2-yl]-N-methyl-N-(2,2,6,6-tetramethylpiperidin-4-yl)[1,3]thiazolo[5,4-d][1,3]thiazol-2-amine], the IC50 was at most 100 nM.
Molecule CC(C)(C)NC1CCN(c2nc3sc(-c4ccc(-c5cn[nH]c5)cc4O)nc3s2)C1 (stereo not drawn) [Compound 147, 2-{5-[3-(tert-butylamino)pyrrolidin-1-yl][1,3]thiazolo[5,4-d][1,3]thiazol-2-yl}-5-(1H-pyrazol-4-yl)phenol] has an IC50 of 1000 to 3000 nM.
CC1CC(N(C)c2nc3sc(-c4ccc(-n5nccn5)c5cc[nH]c45)nc3s2)CCN1C (stereo not drawn) [Compound 118, N-(1,2-dimethylpiperidin-4-yl)-N-methyl-5-[4-(2H-1,2,3-triazol-2-yl)-1H-indol-7-yl][1,3]thiazolo[5,4-d][1,3]thiazol-2-amine] was tested, and the IC50 was 500 to 1000 nM.
In the case of CN1CCC(Nc2nc3sc(-c4ccc(-c5cn[nH]c5)cc4O)nc3s2)CC1 [Compound 23, 2-{5-[(1-methylpiperidin-4-yl)amino][1,3]thiazolo[5,4-d][1,3]thiazol-2-yl}-5-(1H-pyrazol-4-yl)phenol], the IC50 is reported as at most 100 nM.
Oc1cc(-c2cn[nH]c2)ccc1-c1nc2sc(NC3CCNCC3)nc2s1 [Compound 22, 2-[5-(piperidin-4-ylamino)[1,3]thiazolo[5,4-d][1,3]thiazol-2-yl]-5-(1H-pyrazol-4-yl)phenol] was tested, and the IC50 was at most 100 nM.
c1cc2c(-c3cn[nH]c3)cnc(-c3nc4sc(N5CCC56CCCNC6)nc4s3)c2[nH]1 (stereo not drawn) [Compound 134, 7-[5-(1,6-diazaspiro[3.5]nonan-1-yl)[1,3]thiazolo[5,4-d][1,3]thiazol-2-yl]-4-(1H-pyrazol-4-yl)-1H-pyrrolo[2,3-c]pyridine] gave an IC50 of at most 100 nM.
In the case of CN(c1nc2sc(-c3ccc(-c4cn[nH]c4)cc3O)nc2s1)C1CC(C)(C)NC(C)(C)C1 [Compound 1, 2-{5-[methyl(2,2,6,6-tetramethylpiperidin-4-yl)amino][1,3]thiazolo[5,4-d][1,3]thiazol-2-yl}-5-(1H-pyrazol-4-yl)phenol], the IC50 is reported as at most 100 nM.
For Oc1cc(-c2cn[nH]c2)ccc1-c1nc2sc(N3CC4(CC5CCC(C4)N5)C3)nc2s1 [Compound 198, 5-(1H-pyrazol-4-yl)-2-[5-(spiro[8-azabicyclo[3.2.1]octane-3,3′-azetidin]-1′-yl)[1,3]thiazolo[5,4-d][1,3]thiazol-2-yl]phenol], the IC50 was 500 to 1000 nM.
With C[C@H]1C[C@H](N(C)c2nc3sc(-c4ncc(-n5ccnc5)c5cc[nH]c45)nc3s2)CCN1 [Compound 80, 5-[4-(1H-imidazol-1-yl)-1H-pyrrolo[2,3-c]pyridin-7-yl]-N-methyl-H-[(2S,4R)-2-methylpiperidin-4-yl][1,3]thiazolo[5,4-d][1,3]thiazol-2-amine] the IC50 was at most 100 nM.
Molecule CN(c1nc2sc(-c3ccc(-c4cnn(C)c4F)cc3O)nc2s1)C1CC(C)(C)NC(C)(C)C1 [Compound 48, 5-(5-fluoro-1-methyl-1H-pyrazol-4-yl)-2-{5-[methyl(2,2,6,6-tetramethylpiperidin-4-yl)amino][1,3]thiazolo[5,4-d][1,3]thiazol-2-yl}phenol] has an IC50 of 100 to 500 nM.
CN(c1nc2sc(-c3ncc(-c4cn[nH]c4)c4cc[nH]c34)nc2s1)C1CCN2CCCC2C1 (stereo not drawn) [Compound 123, N-methyl-N-{5-[4-(1H-pyrazol-4-yl)-1H-pyrrolo[2,3-c]pyridin-7-yl][1,3]thiazolo[5,4-d][1,3]thiazol-2-yl}octahydroindolizin-7-amine] gave an IC50 of at most 100 nM.
In the case of “N-methyl-N-[(2S,4R)-2-methylpiperidin-4-yl]-5-[4-(1H-pyrazol-4-yl)-1H-pyrrolo[2,3-c]pyridin-7-yl][1,3]thiazolo[5,4-d][1,3]thiazol-2-amine [Compound 72]”, the IC50 is reported as at most 100 nM.
For CN(c1nc2sc(-c3ccc(-c4cn[nH]c4)c4cn[nH]c34)nc2s1)[C@H]1C[C@]2(C)CC[C@](C)(C1)N2 [Compound 110, N-[(1R,3s,5S)-1,5-dimethyl-8-azabicyclo[3.2.1]octan-3-yl]-N-methyl-5-[4-(1H-pyrazol-4-yl)-1H-indazol-7-yl][1,3]thiazolo[5,4-d][1,3]thiazol-2-amine], the IC50 was at most 100 nM.
Work on Cc1cc(-c2cn3cc(C4CCNCC4)nc3s2)cc2cn(C)nc12 [Compound 2, 2,7-dimethyl-5-[6-(piperidin-4-yl)imidazo[2,1-b][1,3]thiazol-2-yl]-2H-indazole] yielded an IC50 of at most 100 nM.
Molecule CC1CC(N(C)c2nc3sc(-n4ccc5ccc(O)nc54)nc3s2)CCN1C (stereo not drawn) [Compound 157, 1-{5-[(1,2-dimethylpiperidin-4-yl)(methyl)amino][1,3]thiazolo[5,4-d][1,3]thiazol-2-yl]-1H-pyrrolo[2,3-b]pyridin-6-ol] has an IC50 of 100 to 500 nM.
CN(c1nc2sc(-c3ccc(-c4cn[nH]c4)c(F)c3F)nc2s1)C1CC(C)(C)NC(C)(C)C1 [Compound 3, 5-[2,3-difluoro-4-(1H-pyrazol-4-yl)phenyl]-N-methyl-N-(2,2,6,6-tetramethylpiperidin-4-yl)[1,3]thiazolo[5,4-d][1,3]thiazol-2-amine] was tested, and the IC50 was 100 to 500 nM.
Molecule Cn1cc2cc(-c3cn4nc(C5CCNCC5)sc4n3)cc(C#N)c2n1 [Compound 32, 2-methyl-5-[2-(piperidin-4-yl)imidazo[2,1-b][1,3,4]thiadiazol-6-yl]-2H-indazole-7-carbonitrile] has an IC50 of 100 to 500 nM.
For CN(c1nc2sc(-c3ncc(-c4ccc5nncn5c4)cc3O)nc2s1)C1CCNCC1 [Compound 210, 2-{5-[methyl(piperidin-4-yl)amino][1,3]thiazolo[5,4-d][1,3]thiazol-2-yl}-5-([1,2,4]triazolo[4,3-a]pyridin-6-yl)pyridin-3-ol], the IC50 was 3000 to 9000 nM.
Molecule CN(c1nc2sc(-c3ccc(-c4cn[nH]c4)cn3)nc2s1)C1CC(C)(C)NC(C)(C)C1 [Compound 133, N-methyl-5-[5-(1H-pyrazol-4-yl)pyridin-2-yl]-N-(2,2,6,6-tetramethylpiperidin-4-yl)[1,3]thiazolo[5,4-d][1,3]thiazol-2-amine] has an IC50 of at most 100 nM.
With Oc1cc(-c2cn[nH]c2)ccc1-c1nc2sc(N3CCNCC3)nc2s1 [Compound 6, 2-[5-(piperazin-1-yl)[1,3]thiazolo[5,4-d][1,3]thiazol-2-yl]-5-(1H-pyrazol-4-yl)phenol] the IC50 was 1000 to 3000 nM.
C[C@H]1C[C@@H](N(C)c2nc3sc(-c4ccc(-c5cn[nH]c5)c5cc[nH]c45)nc3s2)CCN1 [Compound 97, N-methyl-N-[(2S,4S)-2-methylpiperidin-4-yl]-5-[4-(1H-pyrazol-4-yl)-1H-indol-7-yl][1,3]thiazolo[5,4-d][1,3]thiazol-2-amine] gave an IC50 of at most 100 nM.
Work on CN(c1nc2sc(-n3cnc(-c4cn[nH]c4)cc3=O)nc2s1)[C@@H]1C[C@H]2CC[C@@H](C1)N2 [Compound 172, 3-(5-{[(1R,3s,5S)-8-azabicyclo[3.2.1]octan-3-yl](methyl)amino}[1,3]thiazolo[5,4-d][1,3]thiazol-2-yl)-6-(1H-pyrazol-4-yl)pyrimidin-4(3H)-one] yielded an IC50 of at most 100 nM.
Molecule Cn1cc2cc(-c3nc4sc(N5CCNCC5)nc4s3)cc(C#N)c2n1 [Compound 7, 2-methyl-5-[5-(piperazin-1-yl)[1,3]thiazolo[5,4-d][1,3]thiazol-2-yl]-2H-indazole-7-carbonitrile] has an IC50 of 500 to 1000 nM.
Molecule CC1CC(N(C)c2nc3sc(-c4ccc(-c5cn[nH]c5)cn4)nc3s2)CCN1C (stereo not drawn) [Compound 126, N-(1,2-dimethylpiperidin-4-yl)-N-methyl-5-[5-(1H-pyrazol-4-yl)pyridin-2-yl][1,3]thiazolo[5,4-d][1,3]thiazol-2-amine] has an IC50 of 100 to 500 nM.
Work on CC(C)N1CCC(N(C)c2nc3sc(-c4ncc(-c5cn[nH]c5)c5cc[nH]c45)nc3s2)CC1 [Compound 121, N-methyl-N-[1-(propan-2-yl)piperidin-4-yl]-5-[4-(1H-pyrazol-4-yl)-1H-pyrrolo[2,3-c]pyridin-7-yl][1,3]thiazolo[5,4-d][1,3]thiazol-2-amine] yielded an IC50 of at most 100 nM.
Molecule CC1(C)CC(Oc2nc3sc(-c4ccc(-c5cn[nH]c5)cc4O)nc3s2)CC(C)(C)N1 [Compound 37, 5-(1H-pyrazol-4-yl)-2-{5-[(2,2,6,6-tetramethylpiperidin-4-yl)oxy][1,3]thiazolo[5,4-d][1,3]thiazol-2-yl}phenol] has an IC50 of at most 100 nM.
With CN(c1nc2sc(-c3ccc(-c4ccn(C)c(=O)c4)cc3O)nc2s1)C1CCNCC1 [Compound 36, 4-(3-hydroxy-4-{5-[methyl(piperidin-4-yl)amino][1,3]thiazolo[5,4-d][1,3]thiazol-2-yl}phenyl)-1-methylpyridin-2(1H)-one] the IC50 was 100 to 500 nM.
